Where no end group is shown, it is not given here.
What follows are sequences tested against C10-11 mAb (assay: Competitive ELISA with AChE-labeled C10 peptide on C10-11 mAb). Conditions: read-out: Apparent dissociation constant (Kapp) of C10-11 mAb; concentration of competitor inducing 50% inhibition of binding of AChE-labeled C10 peptide (0.5 EU/mL); mAb 1 ng/mL, overnight at 4 °C; NB means no binding.
Set-up: species or system mouse
Procedure: The apparent affinity of anti-C10 peptide mAbs for different variants of C10 peptides and recombinant OspC was measured by competitive ELISA, using goat anti-mouse antibodies (Jackson ImmunoResearch, Cambridgeshire, United Kingdom) coated on the wells of a microtiter plate. A mix of anti-C10 peptide mAb (1 ng/mL), AChE-labeled C10 peptide (0.5 EU/mL) and different concentrations of competitor peptide or recombinant OspC were reacted overnight in the wells at 4 °C.

Sequence	Kd [nM]
PIVAESPKKP [compound 10]	100
PVMAESPKKP [compound 9]	125
PVVAEAPKKP [compound 2]	146
PVVAESPKKP [compound 1, reference compound]	33
PVVAESPKKT [compound 3]	60
PVVAESQKKP [compound 7]	170
PVVAETPKKP [compound 5]	179

— PMC8405660, “Detection of Borrelia burgdorferi antigens in tissues and plasma during early infection in a mouse model” (Scientific Reports, 2021)
